Assay results from ChEMBL document CHEMBL5518215, “Unlocking Antibacterial Potential: Key-Site-Based Regulation of Antibacterial Spectrum of Peptides” (J Med Chem, 2024).

Tests used:
[1] = tested on: Staphylococcus aureus; assay: Antimicrobial activity against Staphylococcus aureus 25923 assessed as bacterial killing measured after 16 hrs incubation; assay type: functional
[2] = tested on: Staphylococcus aureus; assay: Antimicrobial activity against Staphylococcus aureus 29213 assessed as absence bacterial growth measured after 18 to 24 hrs incubation by NCCLS m; assay type: functional; conditions: time 18-24 hrs
[3] = tested on: Staphylococcus aureus; assay: Antimicrobial activity against Staphylococcus aureus 29213 assessed as absence bacterial growth measured after 18 to 24 hrs incubation by NCCLS method; assay type: functional; conditions: time 18-24 hrs
[4] = tested on: Escherichia coli; assay: Antimicrobial activity against Escherichia coli 25922 assessed as absence bacterial growth measured after 18 to 24 hrs incubation by NCCLS method; assay type: functional; conditions: time 18-24 hrs
[5] = tested on: Salmonella typhimurium; assay: Antimicrobial activity against Salmonella typhimurium 14028 assessed as absence bacterial growth measured after 18 to 24 hrs incubation by NCCLS method; assay type: functional, Salmonella enterica subsp. enterica serovar Typhimurium; conditions: Salmonella enterica, time 18-24 hrs
[6] = tested on: Listeria monocytogenes; assay: Antimicrobial activity against Listeria monocytogenes 1.10753 assessed as bacterial killing measured after 16 hrs incubation; assay type: functional
[7] = tested on: Enterococcus faecalis; assay: Antimicrobial activity against Enterococcus faecalis 29212 assessed as bacterial killing measured after 16 hrs incubation; assay type: functional
[8] = tested on: Staphylococcus epidermidis; assay: Antimicrobial activity against Staphylococcus epidermidis 12228 assessed as bacterial killing measured after 16 hrs incubation; assay type: functional
[9] = tested on: Salmonella typhimurium; assay: Antimicrobial activity against Salmonella typhimurium C7731 assessed as absence bacterial growth measured after 18 to 24 hrs incubation by NCCLS method; assay type: functional, Salmonella enterica subsp. enterica serovar Typhimurium; conditions: Salmonella enterica, time 18-24 hrs
[10] = tested on: Salmonella typhimurium; assay: Antimicrobial activity against Salmonella typhimurium C7731 assessed as bacterial killing measured after 16 hrs incubation; assay type: functional, Salmonella enterica subsp. enterica serovar Typhimurium; conditions: Salmonella enterica
[11] = tested on: Staphylococcus aureus; assay: Antimicrobial activity against Staphylococcus aureus 29213 assessed as bacterial killing measured after 16 hrs incubation; assay type: functional
[12] = tested on: Acinetobacter baumannii; assay: Antimicrobial activity against Acinetobacter baumannii 1.6769 assessed as absence bacterial growth measured after 18 to 24 hrs incubation by NCCLS method; assay type: functional; conditions: time 18-24 hrs
[13] = tested on: Enterococcus faecalis; assay: Antimicrobial activity against Enterococcus faecalis 29212 assessed as absence bacterial growth measured after 18 to 24 hrs incubation by NCCLS method; assay type: functional; conditions: time 18-24 hrs
[14] = tested on: Escherichia coli; assay: Antimicrobial activity against Escherichia coli 25922 assessed as bacterial killing measured after 16 hrs incubation; assay type: functional
[15] = tested on: Staphylococcus aureus; assay: Antimicrobial activity against Methicillin-resistant Staphylococcus aureus 43300 assessed as absence bacterial growth measured after 18 to 24 hrs incubation by NCCLS method; assay type: functional; conditions: time 18-24 hrs
[16] = tested on: Pseudomonas aeruginosa; assay: Antimicrobial activity against Pseudomonas aeruginosa 27853 assessed as absence bacterial growth measured after 18 to 24 hrs incubation by NCCLS method; assay type: functional; conditions: time 18-24 hrs
[17] = tested on: Escherichia coli; assay: Antimicrobial activity against Escherichia coli K88 assessed as bacterial killing measured after 16 hrs incubation; assay type: functional
[18] = tested on: Acinetobacter baumannii; assay: Antimicrobial activity against Acinetobacter baumannii 1.6769 assessed as bacterial killing measured after 16 hrs incubation; assay type: functional
[19] = tested on: Staphylococcus epidermidis; assay: Antimicrobial activity against Staphylococcus epidermidis 12228 assessed as absence bacterial growth measured after 18 to 24 hrs incubation by NCCLS method; assay type: functional; conditions: time 18-24 hrs
[20] = Antimicrobial activity against Salmonella pullorum C7913 assessed as bacterial killing measured after 16 hrs incubation; assay type: functional, Salmonella enterica subsp. enterica serovar Pullorum; conditions: Salmonella enterica
[21] = tested on: Bacillus cereus; assay: Antimicrobial activity against Bacillus cereus 1.932 assessed as bacterial killing measured after 16 hrs incubation; assay type: functional
[22] = tested on: Pseudomonas aeruginosa; assay: Antimicrobial activity against Pseudomonas aeruginosa 27853 assessed as bacterial killing measured after 16 hrs incubation; assay type: functional
[23] = Antimicrobial activity against Salmonella pullorum C7913 assessed as absence bacterial growth measured after 18 to 24 hrs incubation by NCCLS method; assay type: functional, Salmonella enterica subsp. enterica serovar Pullorum; conditions: Salmonella enterica, time 18-24 hrs
[24] = tested on: Bacillus cereus; assay: Antimicrobial activity against Bacillus cereus 1.932 assessed as absence bacterial growth measured after 18 to 24 hrs incubation by NCCLS method; assay type: functional; conditions: time 18-24 hrs
[25] = tested on: Salmonella typhimurium; assay: Antimicrobial activity against Salmonella typhimurium 14028 assessed as bacterial killing measured after 16 hrs incubation; assay type: functional, Salmonella enterica subsp. enterica serovar Typhimurium; conditions: Salmonella enterica
[26] = tested on: Staphylococcus aureus; assay: Antimicrobial activity against Methicillin-resistant Staphylococcus aureus 43300 assessed as bacterial killing measured after 16 hrs incubation; assay type: functional
[27] = tested on: Listeria monocytogenes; assay: Antimicrobial activity against Listeria monocytogenes 1.10753 assessed as absence bacterial growth measured after 18 to 24 hrs incubation by NCCLS method; assay type: functional; conditions: time 18-24 hrs
[28] = tested on: Escherichia coli; assay: Antimicrobial activity against Escherichia coli K88 assessed as absence bacterial growth measured after 18 to 24 hrs incubation by NCCLS method; assay type: functional; conditions: time 18-24 hrs
[29] = tested on: Escherichia coli; assay: Antimicrobial activity against Escherichia coli 25922 assessed as absence bacterial growth measured after 18 to 24 hrs incubation in presence of KCl by NCCLS method; assay type: functional; conditions: time 18-24 hrs
[30] = Cytotoxicity against human HEK-293T cells assessed as cell survival rate measured after 8 hrs by MTT assay; assay type: toxicity, cell-based
[31] = Cytotoxicity against mouse RAW264.7 cells assessed as cell survival rate measured after 8 hrs by MTT assay; assay type: toxicity, cell-based
[32] = Cytotoxicity against porcine IPEC-J2 cells assessed as cell survival rate measured after 8 hrs by MTT assay; assay type: toxicity, cell-based, Sus scrofa; conditions: pig
[33] = tested on: Escherichia coli; assay: Antimicrobial activity against Escherichia coli 25922 assessed as absence bacterial growth measured after 18 to 24 hrs incubation in presence of NH4Cl by NCCLS method; assay type: functional; conditions: time 18-24 hrs
[34] = tested on: Escherichia coli; assay: Antimicrobial activity against Escherichia coli 25922 assessed as absence bacterial growth measured after 18 to 24 hrs incubation in presence of 50% serum by NCCLS method; assay type: functional; conditions: time 18-24 hrs
[35] = tested on: Escherichia coli; assay: Antimicrobial activity against Escherichia coli 25922 assessed as absence bacterial growth measured after 18 to 24 hrs incubation in presence of FeCl3 by NCCLS method; assay type: functional; conditions: time 18-24 hrs
[36] = tested on: Escherichia coli; assay: Antimicrobial activity against Escherichia coli 25922 assessed as absence bacterial growth measured after 18 to 24 hrs incubation in presence of MgCl2 by NCCLS method; assay type: functional; conditions: time 18-24 hrs
[37] = tested on: Escherichia coli; assay: Antimicrobial activity against Escherichia coli 25922 assessed as absence bacterial growth measured after 18 to 24 hrs incubation in presence of ZnCl2 by NCCLS method; assay type: functional; conditions: time 18-24 hrs
[38] = tested on: Escherichia coli; assay: Antimicrobial activity against Escherichia coli 25922 assessed as absence bacterial growth measured after 18 to 24 hrs incubation in presence of 25% serum by NCCLS method; assay type: functional; conditions: time 18-24 hrs
[39] = tested on: Escherichia coli; assay: Antimicrobial activity against Escherichia coli 25922 assessed as absence bacterial growth measured after 18 to 24 hrs incubation in presence of 12.5% serum by NCCLS method; assay type: functional; conditions: time 18-24 hrs
[40] = tested on: Erythrocyte; assay: Hemolytic activity in human RBC at effective concentration measured after 1 hr by microplate reader analysis; assay type: toxicity, cell-based
[41] = tested on: Escherichia coli; assay: Antimicrobial activity against Escherichia coli 25922 assessed as absence bacterial growth measured after 18 to 24 hrs incubation in presence of NaCl by NCCLS method; assay type: functional; conditions: time 18-24 hrs

H-AKLWLKAAKLWLKAAKLWLKA-NH2
8 µM: MBC [20]
0.5 µM: MIC [9] | MBC [10] | MBC [17] | MIC [28]
1 µM: MIC [4] | MIC [5] | MIC [12] | MBC [14] | MBC [18]
2 µM: MIC [2] | MIC [3] | MBC [11] | MIC [15] | MIC [16] | MIC [19] | MBC [21] | MIC [23] | MIC [24] | MBC [25]
16 µM: MIC [27]
4 µM: MBC [1] | MBC [7] | MBC [8] | MIC [13] | MBC [22] | MBC [26]
32 µM: MBC [6]

H-GKLWLKGCKLWLKGGKLWLKG-NH2
16 µM: MBC [18] | MBC [25]
32 µM: MBC [10] | MIC [15] | MIC [16] | MBC [22] | MBC [26]
> 32 µM: MBC [1] | MIC [2] | MIC [3] | MBC [6] | MBC [7] | MBC [8] | MBC [11] | MIC [13] | MIC [19] | MIC [34] | MIC [36] | MIC [38] | MIC [39] | MIC [27] | MIC [41]
2 µM: MBC [17] | MIC [23] | MIC [28]
> 64 µM: IC50 at 8 h [30] | IC50 at 8 h [31] | IC50 at 8 h [32]
8 µM: MIC [29] | MIC [4] | MIC [5] | MIC [33] | MIC [9] | MIC [12] | MBC [14] | MIC [35] | MIC [37]
4 µM: MBC [20] | MBC [21] | MIC [24]
> 128 µM: HC10 [40]

H-GKLWLKGFKLWLKGGKLWLKG-NH2
35.7 µM: IC50 at 8 h [32]
0.5 µM: MIC [23]
32 µM: MBC [10]
2 µM: MIC [4] | MIC [5] | MIC [33] | MIC [12] | MIC [13] | MBC [14] | MIC [15] | MBC [18] | MBC [20] | MBC [21] | MIC [35] | MIC [37] | MIC [24]
4 µM: MBC [1] | MIC [29] | MIC [2] | MIC [3] | MBC [7] | MBC [8] | MBC [11] | MIC [16] | MIC [19] | MIC [36] | MIC [41]
36.6 µM: IC50 at 8 h [30]
> 32 µM: MBC [6] | MIC [34] | MIC [38] | MIC [27]
128 µM: HC10 [40]
8 µM: MIC [9] | MBC [25] | MBC [26]
1 µM: MBC [17] | MIC [28]
16 µM: MBC [22] | MIC [39]
31 µM: IC50 at 8 h [31]

H-GKLWLKGIKLWLKGGKLWLKG-NH2
8 µM: MIC [3] | MBC [7] | MIC [9] | MBC [10] | MBC [11] | MIC [36] | MBC [22]
2 µM: MIC [29] | MIC [4] | MIC [5] | MIC [33] | MIC [12] | MBC [14] | MIC [15] | MBC [18] | MBC [21] | MIC [35] | MIC [37] | MIC [24] | MBC [25] | MBC [26]
64 µM: HC10 [40]
1 µM: MBC [17] | MBC [20] | MIC [23] | MIC [28]
4 µM: MBC [1] | MIC [2] | MBC [8] | MIC [13] | MIC [16] | MIC [19] | MIC [41]
16 µM: MIC [39]
36.9 µM: IC50 at 8 h [31]
> 32 µM: MBC [6] | MIC [34] | MIC [38] | MIC [27]
33.5 µM: IC50 at 8 h [30]
18.9 µM: IC50 at 8 h [32]
